Experimental findings from patent US9732063B2, “Kinase inhibitors” (RESPIVERT LIMITED, priority 2012, dated 2017) are described below.

By IC50 is commonly meant the concentration that gives 50% inhibition.

Like-named read-outs stand apart in the source and are kept apart here.

The test system of one assay is HT29 cells. Put plainly: IL-1β-induced IL-8 release in HT29 cells. Particulars: Homo sapiens, HT-29, read-out: IC50 Values for Inhibition of Cytokine Release HT29 cells IL-8. The assay is classed as cell-based. The method, then:
HT29 cells, a human colon adenocarcinoma cell line, are plated in a 96 well plate (24 hrs) and pre-treated with compounds at the desired concentration for 2 hours before addition of 5 ng/mL of IL-1β (Abcam) for 24 hours. Supernatants are harvested for IL-8 quantification by Sandwich ELISA (Duo-set, R&D System). The IC50 is determined from the dose response curve.

Another assay deals with c-Src (Homo sapiens (Human), UniProt P12931). Description: c-Src enzyme inhibition (Z-LYTE FRET). The class given is biochemical. In short, it runs like this: (§1)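 Kinase activity is measured on a dual-labelled synthetic peptide by FRET. ATP is supplied as an 800 μM solution for c-Src and a 60 μM solution for Syk. Compound is tested at four added concentrations, 4 to 0.004 μg/mL.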
Sequence of c-Src (P12931 whole entry, looked up): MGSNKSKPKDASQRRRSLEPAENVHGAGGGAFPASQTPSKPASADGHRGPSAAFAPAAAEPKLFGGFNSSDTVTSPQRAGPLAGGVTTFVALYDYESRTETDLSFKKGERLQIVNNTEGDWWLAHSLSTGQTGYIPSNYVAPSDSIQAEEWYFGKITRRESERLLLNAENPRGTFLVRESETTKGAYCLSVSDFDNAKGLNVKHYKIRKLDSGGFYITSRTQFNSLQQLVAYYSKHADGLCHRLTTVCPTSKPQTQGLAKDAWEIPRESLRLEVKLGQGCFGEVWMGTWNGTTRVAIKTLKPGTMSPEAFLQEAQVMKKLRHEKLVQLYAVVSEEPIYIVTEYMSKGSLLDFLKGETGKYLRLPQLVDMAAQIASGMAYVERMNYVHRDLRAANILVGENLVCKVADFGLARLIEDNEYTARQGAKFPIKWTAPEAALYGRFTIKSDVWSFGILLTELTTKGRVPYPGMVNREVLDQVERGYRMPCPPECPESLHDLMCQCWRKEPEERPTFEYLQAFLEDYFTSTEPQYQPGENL

Another assay deals with d-U937 cells. Description: LPS-induced TNFα/IL-8 release in d-U937 cells. The assay is classed as cell-based. The note with it: Homo sapiens.
The test system of assay [1] is intestinal mucosa biopsies from the inflamed regions of the colon. Description: Human biopsy assay (intestinal mucosa biopsies of ulcerative colitis patients). Particulars: 24 hours; for cytokine (IL-1β, IL-6 and IL-8) release compared to the DMSO control: 1 μg/mL, biopsies from ulcerative colitis patients; for IL-1β release / IL-6 release / IL-8 release: 1 μg/ml, biopsies of UC patients, DMSO control = 100%. The assay is classed as cell-based. The method, then: Intestinal mucosa biopsies are obtained from the inflamed regions of the colon of IBD patients. […] DMSO control or test compounds at the desired concentration are added to the tissue and incubated for 24 hr in the organ culture chamber. The supernatant is harvested for determination of IL-6, IL-8, IL-1β and TNFα levels by R&D ELISA.

The target in another assay is p38 MAPKα (Homo sapiens (Human), UniProt Q16539). Put plainly: p38 MAPKα enzyme inhibition (Z-LYTE FRET, Method 2). The assay is classed as biochemical.
Sequence of p38 MAPKα (Q16539 whole entry): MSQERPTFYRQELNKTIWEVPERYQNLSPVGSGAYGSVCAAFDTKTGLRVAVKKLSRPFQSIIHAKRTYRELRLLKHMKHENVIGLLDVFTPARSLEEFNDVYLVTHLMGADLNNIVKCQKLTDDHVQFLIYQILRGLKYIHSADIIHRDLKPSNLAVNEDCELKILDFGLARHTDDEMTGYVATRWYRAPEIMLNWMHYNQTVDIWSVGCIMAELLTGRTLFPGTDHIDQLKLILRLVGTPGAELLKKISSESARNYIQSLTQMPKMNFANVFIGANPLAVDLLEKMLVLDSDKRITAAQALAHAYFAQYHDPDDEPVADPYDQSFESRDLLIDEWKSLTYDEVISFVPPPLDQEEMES
A further assay deals with TNBS-induced colitis. Particulars: for inflammatory cell infiltrate in the reticular and laminar propria zone / ulcer grade and epithelial repair compared to the vehicle control: dosed orally at either 1 or 5 mg/kg; for LP inflammation / Ulcer grade: oral gavage BID, conducted over 2 days, mice.
The next assay has as its target Syk (Homo sapiens (Human), UniProt P43405). Put plainly: Syk enzyme inhibition (Z-LYTE FRET). The class given is biochemical. An outline of the steps:
as §1

The test system of assay [2] is PBMCs. Put plainly: LPS-induced TNFα/IL-8 release in PBMC cells. The assay is classed as cell-based. The note with it: Homo sapiens. In short, it runs like this:
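Healthy-donor PBMCs, isolated by density gradient, were pretreated with compound for 2 h and then stimulated with 1 ng/mL E. coli O111:B4 LPS for 24 h at 37 °C, 5% CO2. Supernatant IL-8 and TNFα were quantified by sandwich ELISA.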

In assay [3] the test system is PBMCs. Description: IL-2 and IFN gamma release in CD3/CD28 stimulated PBMC cells. The class given is cell-based. The note with it: Homo sapiens. An outline of the steps:
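They were cultured with compound for 3 days. IL-2 and IFN-γ in supernatants were quantified by sandwich ELISA, and IC50 was derived from the dose-response curve.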

In another assay the target is GSK3α (Homo sapiens (Human), UniProt P49840). Put plainly: GSK 3α enzyme inhibition (Z-LYTE FRET, Method 2). The class given is biochemical. In short, it runs like this:
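Z-LYTE FRET: GSK3α preincubated with compound 2 h at RT, then FRET peptide and ATP added (stocks 8 μM and 40 μM) for 1 h, followed by 1 h protease development. Compound stocks 4–0.004 μg/mL; phosphorylation from coumarin/fluorescein emission ratio.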

[4] abbreviates: dU937, read-out: IC50 Values for Inhibition of Cytokine Release dU937 cells IL-8.
Setting [5] is: dU937, read-out: IC50 Values for Inhibition of Cytokine Release dU937 cells TNFα.
[6] abbreviates: read-out: IC50 Values for Inhibition of Cytokine Release PBMCs IL-8.
Where [7] appears, read: read-out: IC50 Values for Inhibition of Cytokine Release PBMCs IFNγ.
Where [8] appears, read: read-out: IC50 Values for Inhibition of Cytokine Release PBMCs IL-2.

Sequence of GSK3α (P49840 whole entry): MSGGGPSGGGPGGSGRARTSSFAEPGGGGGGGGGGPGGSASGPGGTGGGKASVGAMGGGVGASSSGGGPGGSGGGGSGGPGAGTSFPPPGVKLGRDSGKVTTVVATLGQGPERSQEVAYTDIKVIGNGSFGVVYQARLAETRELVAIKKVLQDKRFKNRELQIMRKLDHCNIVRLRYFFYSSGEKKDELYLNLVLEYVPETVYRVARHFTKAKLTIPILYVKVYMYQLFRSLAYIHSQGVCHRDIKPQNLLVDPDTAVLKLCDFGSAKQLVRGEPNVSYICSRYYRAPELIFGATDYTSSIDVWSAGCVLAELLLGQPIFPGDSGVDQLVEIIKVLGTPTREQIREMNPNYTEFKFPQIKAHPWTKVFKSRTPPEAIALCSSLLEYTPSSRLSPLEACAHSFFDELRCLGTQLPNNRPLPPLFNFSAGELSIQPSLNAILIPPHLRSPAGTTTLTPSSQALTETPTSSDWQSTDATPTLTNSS
Description for TNBS-induced colitis: On Day 0 of the study TNBS (200 μL) is administered intra-colonically via a plastic catheter followed by BID dosing of the vehicle, reference or test compound for 2 or 4 days. During the study animals are weighed every day and stool observations are made and recorded as a score, based on stool consistency. At the time of sacrifice on Day 2 (or Day 4) the large intestine is removed and the length and weight recorded. Sections of the colon are taken for either MPO analysis to determine neutrophil infiltration or for histopathology involving scoring to determine disease severity.

As to `COCCOCCOCCOc1cc(Nc2nccc(Oc3ccc(NC(=O)Nc4cc(C(C)(C)C)nn4-c4ccc(OC)cc4)c4ccccc34)n2)cc(OC)c1` [Example 44, 1-(3-(tert-Butyl)-1-(4-methoxyphenyl)-1H-pyrazol-5-yl)-3-(4-((2-((3-methoxy-5-(2-(2-(2-methoxyethoxy)ethoxy)ethoxy)phenyl)amino)pyrimidin-4-yl)oxy)naphthalen-1-yl)urea], the IC50 in the assay with HT29 cells came to 1.2 nM; at c-Src, 10 nM; in the assay on d-U937 cells (setting [4]), 0.6 nM; in the assay on d-U937 cells (setting [5]), 0.5 nM; against p38 MAPKα, 103 nM; on Syk, 23 nM. Further, the IC50 in the assay with PBMCs [2] (setting [6]) was determined as 1.6 nM; in the assay on PBMCs [2] (read-out: IC50 Values for Inhibition of Cytokine Release PBMCs TNFα) it was 0.6 nM; in the assay on PBMCs [3] (setting [7]), 1.4 nM; in the assay with PBMCs [3] (setting [8]), 38.5 nM. Moreover, the “cytokine (IL-1β, IL-6 and IL-8) release compared to the DMSO control” value in assay [1] is listed as “significantly inhibited”. In assay [1], this compound registered an IL-1β release of 4 ± 5%. In assay [1], this compound showed an IL-6 release of 25 ± 44%. The compound further returned an IL-8 release in assay [1] of 2 ± 2%. Further, the “inflammatory cell infiltrate in the reticular and laminar propria zone” value with TNBS-induced colitis is on record as “marked reduction”. Besides, in the assay on TNBS-induced colitis, the “ulcer grade and epithelial repair compared to the vehicle control” value was “marked improvements”.

On to `COCCOCCOCCOCCOCCOCCOCCOc1cc(Nc2nccc(Oc3ccc(NC(=O)Nc4cc(C(C)(C)C)nn4-c4ccc(C)cc4)c4ccccc34)n2)cc(OC)c1` [Example 51, 1-(4-((2-((3-(2,5,8,11,14,17,20-Heptaoxadocosan-22-yloxy)-5-methoxyphenyl)amino)pyrimidin-4-yl)oxy)naphthalen-1-yl)-3-(3-(tert-butyl)-1-(p-tolyl)-1H-pyrazol-5-yl)urea], for which the IC50 in the assay on HT29 cells was 1.6 nM; against c-Src, 10 nM; with d-U937 cells (setting [4]) it was 0.4 nM; in the assay with d-U937 cells (setting [5]) it was 0.3 nM; at GSK3α, 1330 nM; against p38 MAPKα it was 53 nM. Further, the IC50 against Syk was found to be 18 nM; in the assay on PBMCs [2] (setting [6]) it was 1.9 nM; with PBMCs [3] (setting [7]) it was 1.8 nM; in the assay on PBMCs [3] (setting [8]), 40.7 nM. In assay [1], the “cytokine (IL-1β, IL-6 and IL-8) release compared to the DMSO control” value is recorded as “significantly inhibited”. In assay [1], this compound gave an IL-1β release of 4 ± 2%. In assay [1], this compound had an IL-6 release of 12 ± 15%. In addition, the IL-8 release in assay [1] is reported as 2 ± 1%. In addition, the LP inflammation in the assay on TNBS-induced colitis (1 mg/kg) was 3.1 ± 0.4; in the assay with TNBS-induced colitis (5 mg/kg), 2.3 ± 0.4. For the same compound, the Ulcer grade in the assay with TNBS-induced colitis (1 mg/kg) was determined as 2.8 ± 0.5; in the assay with TNBS-induced colitis (5 mg/kg), 2.6 ± 0.5. Moreover, the “inflammatory cell infiltrate in the reticular and laminar propria zone” value with TNBS-induced colitis was “marked reduction”. Further, the “ulcer grade and epithelial repair compared to the vehicle control” value with TNBS-induced colitis was “marked improvements”.
